Assay results reported in publication PMC11364104, “Discovery of SARS-CoV-2 papain-like protease (PL^pro) inhibitors with efficacy in a murine infection model” (Science Advances, 2024).
Read-outs that look alike come from different tables or passages of the source.

What was measured:
in vitro [1] = conditions: human, hepatocytes
in vitro [2] = conditions: dog, MDCK
SARS-CoV-2 = assay: microbe, parasite or virus in culture; assay type: cell-based
[3] = Metabolic stability in cryopreserved human hepatocytes
[4] = RRCK passive permeability; conditions: dog, MDCK
SARS-CoV-2 PL^pro = SARS-CoV-2 PL^pro (Severe acute respiratory syndrome coronavirus 2, UniProt P0DTD1); assay: PLpro enzymatic assay (Z-RLRGG-AMC substrate cleavage); assay type: biochemical; conditions: geometric mean of at least three replicates
[5] = Severe acute respiratory syndrome coronavirus 2, Vero C1008, read-out: SARS-CoV-2 Vero E6 EC50 (nM)*

Structure (SMILES)	hepatocyte CLint (in vitro [1])	Papp (in vitro [2])	EC50 (SARS-CoV-2; Severe acute respiratory syndrome coronavirus 2, Vero C1008, read-out: EC50, cytopathic effect (CPE))	hepatocyte CLint [3]	EC50 (SARS-CoV-2; [5])	Papp [4]	Ki (SARS-CoV-2 PL^pro)
Cc1ccc(N)cc1C(=O)N[C@H](C)c1cccc2ccccc12 [Compound 1]	20.9 µL/min/1e6 cells	45.6 ×10⁻⁶ cm/s	68200 nM	–	–	–	–
Cc1ccc(N2CCN(C)CC2)cc1C(=O)N[C@H](C)c1cc(-c2cnn(C)c2)nc2ccccc12 [Compound 3]	–	–	–	12.8 µL/min/1e6 cells	652 nM	41.9 ×10⁻⁶ cm/s	–
Cc1ccccc1C(=O)N[C@H](C)c1cc(-c2cnn(C)c2)nc2ccccc12 [Compound 2]	–	–	–	13.9 µL/min/1e6 cells	1580 nM	42 ×10⁻⁶ cm/s	116 nM
